Reference: ChEMBL document CHEMBL5150026, “Selective butyrylcholinesterase inhibition by isatin dimers and 3-indolyl-3-hydroxy-2-oxindole dimers” (Bioorg Med Chem Lett, 2022)
pIC50: −log10 of the molar value. Activity calls are given as the source filed them. The calls are words filed in the database; no cut-off is given here.

Tests used:
Acetylcholinesterase = Acetylcholinesterase (Electrophorus electricus, UniProt O42275)
Description: Inhibition of electric eel AChE by Ellman's method

Cholinesterase = Cholinesterase (Equus caballus, UniProt P81908)
Description: Inhibition of equine serum BuChE by Ellman's method

[1] = molecular target: Cholinesterase (Equus caballus) (UniProt P81908); assay: Mixed reversible inhibition of equine serum BuChE assessed as decrease in Vmax and increase in Km at 3.13 to 12.5 uM by Lineweaver-burk plot analysis; details: dose 3.13-12.5 µM
[2] = molecular target: Cholinesterase (Equus caballus) (UniProt P81908); assay: Mixed reversible inhibition of equine serum BuChE assessed as decrease in Vmax and increase in Km at 1.56 to 6.25 uM by Lineweaver-burk plot analysis; details: dose 1.56-6.25 µM
[3] = molecular target: Cholinesterase (Equus caballus) (UniProt P81908); assay: Potency index,ratio of isatin IC50 to test compound IC50 for inhibition of equine serum BuChE

Chain of Acetylcholinesterase (O42275 whole entry): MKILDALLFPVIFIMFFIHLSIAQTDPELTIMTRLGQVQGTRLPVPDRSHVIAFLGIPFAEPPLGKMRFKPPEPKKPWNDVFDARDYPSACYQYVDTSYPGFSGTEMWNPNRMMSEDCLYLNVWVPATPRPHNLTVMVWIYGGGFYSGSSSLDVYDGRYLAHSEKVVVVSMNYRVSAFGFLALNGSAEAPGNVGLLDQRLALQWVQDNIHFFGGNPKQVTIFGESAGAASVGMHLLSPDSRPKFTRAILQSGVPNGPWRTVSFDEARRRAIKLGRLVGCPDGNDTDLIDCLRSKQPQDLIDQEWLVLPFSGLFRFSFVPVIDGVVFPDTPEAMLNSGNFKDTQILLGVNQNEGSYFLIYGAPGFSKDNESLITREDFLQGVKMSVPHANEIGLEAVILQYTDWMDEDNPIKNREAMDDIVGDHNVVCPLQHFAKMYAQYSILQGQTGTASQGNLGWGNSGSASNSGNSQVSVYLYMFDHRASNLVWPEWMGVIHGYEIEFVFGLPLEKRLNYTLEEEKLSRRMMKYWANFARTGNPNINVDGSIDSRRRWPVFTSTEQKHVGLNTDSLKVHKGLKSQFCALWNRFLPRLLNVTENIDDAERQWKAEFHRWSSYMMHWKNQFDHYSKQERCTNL
Chain of Cholinesterase (P81908 whole entry): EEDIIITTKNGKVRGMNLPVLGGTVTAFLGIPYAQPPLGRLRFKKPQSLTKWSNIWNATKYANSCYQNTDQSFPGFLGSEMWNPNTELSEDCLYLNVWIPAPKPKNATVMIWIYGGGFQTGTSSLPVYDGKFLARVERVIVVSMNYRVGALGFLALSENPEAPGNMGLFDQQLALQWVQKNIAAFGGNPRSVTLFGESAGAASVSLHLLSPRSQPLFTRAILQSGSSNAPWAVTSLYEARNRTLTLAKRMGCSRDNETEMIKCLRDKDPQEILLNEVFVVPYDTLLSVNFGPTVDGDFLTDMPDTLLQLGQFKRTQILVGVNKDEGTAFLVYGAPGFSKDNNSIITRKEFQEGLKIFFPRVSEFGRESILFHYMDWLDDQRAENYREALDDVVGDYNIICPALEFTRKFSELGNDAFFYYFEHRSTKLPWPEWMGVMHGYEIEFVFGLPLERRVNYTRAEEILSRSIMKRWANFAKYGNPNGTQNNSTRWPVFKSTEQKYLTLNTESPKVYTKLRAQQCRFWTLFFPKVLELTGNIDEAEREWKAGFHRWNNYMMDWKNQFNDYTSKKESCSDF
Chain of Cholinesterase (Equus caballus) (P81908 whole entry): as above

Structure (SMILES) | pIC50 (Acetylcholinesterase) | pIC50 (Cholinesterase) | inhibition [1] | inhibition [2] | Ratio IC50 [3]
O=C1C(=O)N(CCCCCCN2C(=O)C(=O)c3ccccc32)c2ccccc21 | < 4.30 | < 4.30 |  |  | 
O=C1N(CCCN2C(=O)C(O)(c3c[nH]c4ccccc34)c3ccccc32)c2ccccc2C1(O)c1c[nH]c2ccccc12 (centres undefined) | < 4.30 | 5.19 |  |  | 
O=C1C(=O)N(CCN2C(=O)C(=O)c3ccccc32)c2ccccc21 | < 3.90 | < 3.90 |  |  | 
O=C1N(CCCCCCCN2C(=O)C(O)(c3c[nH]c4ccccc34)c3ccccc32)c2ccccc2C1(O)c1c[nH]c2ccccc12 (centres undefined) | < 4.30 | 4.88 |  |  | 
O=C1C(=O)N(CCCCN2C(=O)C(=O)c3ccccc32)c2ccccc21 | < 3.90 | 4.46 |  |  | 
O=C1N(CCCCCCCCN2C(=O)C(O)(c3c[nH]c4ccccc34)c3ccccc32)c2ccccc2C1(O)c1c[nH]c2ccccc12 (centres undefined) | < 4.30 | < 4.60 |  |  | 
O=C1C(=O)N(CCCCCCCCN2C(=O)C(=O)c3ccccc32)c2ccccc21 | < 4.30 | < 4.30 |  |  | 
O=C1C(=O)N(CCCCCN2C(=O)C(=O)c3ccccc32)c2ccccc21 | < 4.30 | 5.12 |  |  | 
O=C1N(CCN2C(=O)C(O)(c3c[nH]c4ccccc34)c3ccccc32)c2ccccc2C1(O)c1c[nH]c2ccccc12 (centres undefined) | < 4.30 | < 4.30 |  |  | 
O=C1N(CCCCCCN2C(=O)C(O)(c3c[nH]c4ccccc34)c3ccccc32)c2ccccc2C1(O)c1c[nH]c2ccccc12 (centres undefined) | < 4.30 | 4.85 |  |  | 
O=C1N(CCCCCN2C(=O)C(O)(c3c[nH]c4ccccc34)c3ccccc32)c2ccccc2C1(O)c1c[nH]c2ccccc12 (centres undefined) | < 4.30 |  | Active |  | 
O=C1Nc2ccccc2C1=O [ISATIN] | < 3.00 | < 3.00 |  |  | 
O=C1C(=O)N(CCCN2C(=O)C(=O)c3ccccc32)c2ccccc21 | < 3.90 | < 3.90 |  |  | 
O=C1N(CCCCN2C(=O)C(O)(c3c[nH]c4ccccc34)c3ccccc32)c2ccccc2C1(O)c1c[nH]c2ccccc12 (centres undefined) | < 4.30 | 4.93 |  |  | 
O=C1C(=O)N(CCCCCCCN2C(=O)C(=O)c3ccccc32)c2ccccc21 | < 4.30 | 5.49 |  | Active | 300
O=C1Nc2ccccc2C1(O)c1c[nH]c2ccccc12 (centres undefined) | 2.88 | 3.45 |  |  | 
